Data on 20 molecules can be found in PubChem BioAssay (NCI).

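1) Cells in 96-well plates. 2) Compound, 48 h, 5 concentrations. 3) Linear interpolation between surrounding doses. 4) Unreached endpoint = highest concentration. GI50 = concentration required for 50% inhibition of growth. TGI: concentration producing complete growth inhibition.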

What all share (assay): inhibition of tumour cell growth, NCI panel, 48 h
For assay [1], the system named is U251 CNS.
Assay [2] concerns A549 NSCLC.
The subject of assay [3] is MDA-MB-231 breast.
Assay [4] deals with PC-3 prostate.
Assay [5] deals with EKVX NSCLC.
The subject of assay [6] is TK-10 renal.
Assay [7] relates to OVCAR-3 ovarian.
Assay [8] deals with SN12C renal.
Assay [9] concerns SF-539 CNS.
In assay [10] the test system is RPMI-8226 leukemia.

As for `CCCCCCNCc1cc(C(C)(C)C)cc(CNCCCCCC)c1O`, the GI50 was 1.57 µM in assay [1]; 1.71 µM in assay [2]; 1.35 µM in [3]; 1.53 µM in assay [4]; 1.55 µM in [5]; 1.86 µM in assay [6]. Besides, the GI50 is 1.73 µM in assay [7], 1.7 µM in assay [8], 1.64 µM in assay [9] and 1.96 µM in assay [10]. The TGI in assay [1] is 2.91 µM; in assay [2], 3.08 µM; in assay [3], 2.7 µM; in assay [4], 2.9 µM; in assay [5] it was 2.96 µM; in assay [6], 3.3 µM. The TGI in assay [7] is 3.15 µM; in assay [8] it was 3.15 µM; in [9], 3.09 µM; in [10], 4.05 µM.

On to `CCCCOC1OC(COC(=O)C(C)C)C(OC(=O)C(C)C)C(O)C1OC1OC(C)C(OC(=O)CCC)C(OC(=O)C(C)C)C1O` (stereo not given), for which the GI50 was 13.6 µM in [1]; 13.6 µM in assay [2]; 10.1 µM in assay [3]; 8.35 µM in [4]; 12.5 µM in assay [5]; 13.2 µM in assay [6]. Moreover, the GI50 in [7] is 11.9 µM; in [9], 20.5 µM; in assay [10] it was 2.27 µM. Besides, the TGI in assay [1] was determined as 26.4 µM; in [2], 26.5 µM; in [3] it was 21.7 µM; in [4], 20.7 µM; in assay [5], 25.2 µM; in [6], 25.9 µM. Also, the TGI in assay [7] turned out to be 24.2 µM; in assay [9], 34.8 µM; in assay [10], 8.95 µM.

As to `O=C(CCCN1CCC(C(O)c2ccc(F)cc2)CC1)c1ccc(F)cc1` (stereo not given), the TGI in assay [1] came to 106 µM; in [2], 123 µM; in assay [3], 89.7 µM; in assay [4], 99.6 µM; in [5] it was 136 µM; in assay [6], 86.8 µM. Also, the TGI in [7] is 116 µM; in assay [8], 141 µM; in [9] it was 113 µM; in assay [10], 168 µM.

For `COc1cc(C)c2sc3ccccc3c(=O)c2c1NCCN(C)C`, the GI50 in assay [1] was 3.66 µM; in assay [2], 4.05 µM; in assay [3], 3.48 µM; in [4], 4.28 µM; in [6] it was 8.83 µM; in assay [7], 10.5 µM. In addition, the GI50 in [8] was 5.41 µM; in assay [9], 4.73 µM; in assay [10] it was 2.85 µM. Also, the TGI amounted to 14.1 µM in assay [1]; 15.7 µM in assay [2]; 15.9 µM in assay [3]; 17.4 µM in assay [4]; 21.2 µM in assay [6]; 23.9 µM in [7]. Besides, the TGI is 20 µM in [8], 17.4 µM in [9] and 8.87 µM in assay [10].

As for `Cc1cc(Cl)ccc1C(=O)c1ccc2ccccc2c1C(=O)O`, the TGI in assay [1], in assay [2], in [3], in [4], in assay [6] and in assay [7] was greater than 100 µM throughout. In addition, the TGI in assay [9] and in assay [10] was greater than 100 µM throughout.

As for `COc1ccc(C(=O)c2sc3nc(-c4cccs4)ccc3c2N)cc1OC`, the GI50 was 7.78 µM in assay [1]; 4.71 µM in assay [2]; 2.96 µM in [3]; 3.65 µM in assay [4]; 6.78 µM in assay [7]; 11 µM in assay [8]. In addition, the figures for the GI50 in assay [9] and in assay [10] were 5.32 µM and 5.45 µM, respectively. In addition, the TGI in [1] is greater than 100 µM; in assay [2], greater than 100 µM; in assay [3], 29.6 µM; in [4], greater than 100 µM; in [7], greater than 100 µM; in assay [8] it was greater than 100 µM. For the same molecule, the TGI in assay [9] and in assay [10] was greater than 100 µM throughout.

In the case of `CCOC(=O)Nc1cc2ccccc2c(N=Nc2ccccc2)c1O`, the TGI in assay [1], in assay [2], in [3], in assay [4], in [5] and in assay [6] was greater than 100 µM each time. Further, the TGI in assay [7] is greater than 100 µM; in [8], greater than 100 µM; in assay [9], 35.8 µM; in assay [10], greater than 100 µM.

Turning to `Cc1cc(O)c(C2=NN(c3ccc(S(N)(=O)=O)cc3)C(/C=C/c3ccccc3)C2)cc1Cl` (stereo not given), the GI50 in [1] was 3.79 µM; in [2], 11 µM; in assay [3], 4.56 µM; in assay [4], 3.15 µM; in assay [5] it was 14.2 µM; in [6] it was 14.8 µM. For the same molecule, the GI50 in [7] was 11.5 µM; in [8] it was 11.1 µM; in assay [9], 2.98 µM; in assay [10], 4.95 µM. Further, the TGI in [1] was found to be 15.6 µM; in assay [2] it was 30.8 µM; in [3], 16.3 µM; in [4], 11.5 µM; in [5] it was 35.3 µM; in assay [6], 29.9 µM. The TGI in assay [7] stood at 28.4 µM; in assay [8], 25.6 µM; in assay [9] it was 14 µM; in assay [10], 20.6 µM.

With `CC(C)(C)OC(=O)NCc1cccc(N=C=S)c1`, the GI50 is 23 µM in [1]; 28 µM in assay [2]; 25.7 µM in assay [3]; 21.5 µM in assay [4]; 23.4 µM in assay [5]; 25.8 µM in assay [6]. Besides, the GI50 in assay [7] was 16.4 µM; in [8] it was 22.1 µM; in assay [9], 21.1 µM; in assay [10], 17.2 µM. The TGI in [1] is 53.4 µM; in assay [2], 72.1 µM; in assay [3], greater than 85.7 µM; in assay [4], 51.8 µM; in [5], 61 µM; in assay [6], 70.8 µM. The TGI amounted to 31.2 µM in [7], 60.3 µM in assay [8], 59.7 µM in [9] and 56.7 µM in assay [10].

Consider `COC(=O)c1cc(OC)c(OC)c(OC)c1-c1cc2c(cc1C=O)OCO2`, for which the TGI in [1], in [2], in [3], in [4], in assay [5] and in [6] was greater than 10 µM throughout. Further, the TGI in assay [7], in [8], in [9] and in [10] was greater than 10 µM each time.

On to `CC(=O)/C=C/c1ccc(OCc2ccc(Cl)cc2)cc1`, for which the GI50 in [1] is greater than 1000 µM; in [2] it was greater than 1000 µM; in assay [3], 629 µM; in assay [4] it was 725 µM; in [5] it was 298 µM; in assay [6], 827 µM. Moreover, the GI50 in [7] is greater than 1000 µM; in assay [8] it was 893 µM; in [9], greater than 1000 µM; in assay [10], 237 µM. Further, the TGI in assay [1], in [2], in assay [3], in [4], in assay [5] and in [6] was greater than 1000 µM in each case. Moreover, the TGI in [7], in [8], in assay [9] and in assay [10] was greater than 1000 µM each time.

Turning to `CC(=O)Nc1n[n+]([O-])c2cc(C)ccc2[n+]1[O-]`, the TGI in [1] was determined as 14.2 µM; in [2] it was 12.3 µM; in assay [3], 23.4 µM; in assay [4], 14.8 µM; in assay [5], 16.8 µM; in [6], 58.1 µM. Besides, the TGI in [7] is 7.77 µM; in assay [8], 18.8 µM; in assay [9], 5.36 µM; in assay [10] it was greater than 100 µM.

`Nc1nc(N)c2nc3c(nc2n1)CCCCCCCCCC3`: the GI50 in assay [1] is 2.71 µM; in assay [2] it was 0.407 µM; in assay [3], 6.04 µM; in assay [4], 5.73 µM; in assay [7], 6.15 µM; in assay [8] it was 7.04 µM. Also, the results for the GI50 in [9] and in assay [10] were 5.69 µM and greater than 100 µM, respectively. For the same molecule, the TGI in assay [1], in assay [2], in assay [3], in assay [4], in [7] and in [8] was greater than 100 µM in each case. Further, the TGI in assay [9] and in assay [10] was greater than 100 µM in each case.

Consider `O=[N+]([O-])c1cc2no[n+]([O-])c2cc1N1CCCCC1`, for which the TGI was found to be 20.2 µM in assay [1]; 42.8 µM in assay [2]; 44.3 µM in [3]; 5.68 µM in assay [4]; 8.98 µM in assay [5]; 9.08 µM in [6]. Besides, the TGI in [8] is 4.34 µM; in [9], greater than 20.1 µM; in assay [10], 6.64 µM.

Consider `COc1cnc2c(c1)C(=O)c1c-2n(CCCN2CCC(O)CC2)c(=O)c2cc(Cl)ccc12`, for which the GI50 is 0.0904 µM in assay [1]; 0.48 µM in assay [2]; 1.51 µM in assay [3]; 1.46 µM in [4]; 1.84 µM in assay [5]; 13 µM in assay [6]. The GI50 is 1.4 µM in assay [7], 0.433 µM in [9] and 0.947 µM in assay [10]. The TGI in [1] was determined as 1.7 µM; in assay [2], 2.34 µM; in [3] it was 3.12 µM; in assay [4] it was 3.56 µM; in assay [5] it was 5.85 µM; in assay [6], 28.7 µM. Moreover, the figures for the TGI in assay [7], in [9] and in [10] were 3.03 µM, 1.64 µM and 5.19 µM, respectively.

Take `COc1cc(Cl)cc(-c2nn(-c3cccc(NC(=O)Nc4ccc(Cl)c(Cl)c4)c3)cc2-c2ccncc2)c1`: the GI50 in assay [1] was 1.7 µM; in assay [2], 1.48 µM; in assay [3], 1.87 µM; in assay [4], 1.13 µM; in [7] it was 1.56 µM; in assay [8], 3.1 µM. The GI50 is 2.6 µM in assay [9] and 0.652 µM in assay [10]. The TGI in assay [1] was 6.03 µM; in assay [2], 15.3 µM; in [3] it was 4.52 µM; in [4] it was 5.28 µM; in assay [7], 29.4 µM; in assay [8] it was greater than 100 µM. The results for the TGI in assay [9] and in assay [10] were 13.2 µM and 3.37 µM, respectively.

In the case of `C/C(=N\NC(=S)N1CCCCCC1)c1cccc2cccnc12`, the TGI in assay [1] was greater than 29.2 µM; in assay [2], greater than 100 µM; in [3], greater than 79 µM; in [4], greater than 100 µM; in assay [5] it was greater than 75.3 µM; in assay [6], greater than 100 µM. Besides, the TGI in assay [7] worked out at 0.567 µM; in assay [9] it was 5.65 µM; in assay [10] it was 15.3 µM.

`Cn1cc(C2=C(Nc3ccccc3)C(=O)NC2=O)c2ccccc21`: the GI50 in [1], in [2], in [3], in [4], in assay [6] and in [7] was greater than 25 µM throughout. The GI50 in assay [8], in [9] and in [10] was greater than 25 µM throughout. The TGI in assay [1], in assay [2], in assay [3], in assay [4], in [6] and in [7] was greater than 25 µM throughout. Also, the TGI in [8], in assay [9] and in assay [10] was greater than 25 µM throughout.

On to `COC(=O)C(C(=O)OC)C(Br)C(Br)C(Br)c1ccccc1` (stereo not given), for which the GI50 in [1] is 14.8 µM; in assay [2], 16.8 µM; in assay [3] it was 13.2 µM; in [4], 11.5 µM; in assay [7], 2.98 µM; in assay [8], 14 µM. Besides, the figures for the GI50 in assay [9] and in assay [10] were 18.2 µM and 2.68 µM, respectively. The TGI in [1] turned out to be 28 µM; in [2], 32.6 µM; in [3], 26.8 µM; in assay [4], 24.6 µM; in assay [7], 7.63 µM; in assay [8], 27.3 µM. The TGI in assay [9] worked out at 33.7 µM; in assay [10], 7.8 µM.

As to `COC1CC(N)C(O)C(C)O1` (stereo not given), the TGI in assay [1], in assay [3], in [4], in [5], in [7] and in [8] was greater than 100 µM in each case. For the same molecule, the TGI in [9] and in [10] was greater than 100 µM in each case.
